Where “and” joins values, the source holds several entries; their conditions need not be identical. Equal entries are not always repeated. Entries after “also recorded” stand apart in the source; their conditions may differ.
How the values were obtained:
[1] = tested on: SS patients; assay: Routine clinical and laboratory (haematological and biological) data in SS patients with HC treatment
[2] = tested on: α-Hb; assay: In vitro α-Hb pool measurement in haemolysate (capture on GST-AHSP affinity support); format: in vivo, human; settings: Treated SS patients (HC), n=10, mean ± SD; ng free α-Hb per mg total subunits per mL of lysed RBCs
Description: (§1) We centrifuged 4 mL of whole blood from each subject for 5 min at 4° C., with blood samples processed within 2 h of collection. The plasma was gently removed, leaving 3 mm above the RBCs to retain the reticulocytes; the RBCs were washed with 0.15 M NaCl and then frozen at −80° C. They were thawed on ice and lysed with four volumes of cold distilled water, and incubated for 30 min at +4° C., before centrifugation at 16,000×g for 30 min at +4° C. The RBC lysate (haemolysate) was recovered as the supernatant and stored at −80° C.
The α-Hb pool was assessed for the RBC lysates of all subjects (SS patients and controls), by capturing α-Hb subunits on GST-AHSP bound to an affinity chromatography support, as previously described.^15

[3] = tested on: AHSP; assay: Determination of AHSP concentration in haemolysates by sandwich ELISA; format: in vivo, human
Description: as §1
We used high-binding 96-well ELISA plates (COSTAR High Binding ELISA Plates, Corning Incorporated, Corning, NY, USA). Following each step, up to 3,3′,5,5′-tetramethylbenzidine (TMB) addition, the wells were washed three times with 300 μL DPBS-0.05% Tween-20 (DPBS-TWEEN® Tablets, Calbiochem, Millipore Corporation, Burlington, MA, USA). The wells were coated with 100 μL/well anti-Ahsp antibody (EPR12319, diluted 1:1000 in DPBS) as the capture antibody. After 2 h at 37° C., the wells were washed and blocked by incubation for 2 h at 37° C. with 300 μL blocking buffer (0.15% BSA in DPBS). The wells were washed and left to dry in air, covered with SealPlate and stored at 4° C.
Serial dilutions of recombinant AHSP stored in −80° C. were prepared (0.395 to 3 ng/mL) in blocking buffer and added to the plate in duplicate in each assay, for construction of the calibration curve. Diluted recombinant AHSP were added to the coated wells (100 μL/well) and the plates were incubated for 2 h at 37° C. The plates were washed and 100 μL of biotin-conjugated rabbit polyclonal anti-human recombinant Ahsp antibody (Met1-Ser102) (ABIN2615200, Antibodies-online Gmb, Aachen, Germany, diluted 1:255 in blocking buffer), used as the detecting antibody, were added to each well, and the plates were incubated for 1 h at 37° C. The plates were washed five times and the samples were then incubated with 100 μL/well streptavidin-HRP (DY998, R&D Systems, Minneapolis, MN, USA, diluted 1:100 in blocking buffer) for 20 min at 37° C. in the dark. Next steps, washes and incubations, were performed in the dark. The reaction was developed by adding 50 μL/well TMB as a substrate (1-Step™ Ultra TMB-ELISA, Thermo Fisher Scientific). The plates were incubated for 5-10 min, and the reaction was then stopped by adding 50 μL/well 1 N sulfuric acid. Absorbance was measured immediately, at 450 nm (A450), with a microplate reader (Eon™, BioTek Instruments Inc, Winooski, Vermont, USA).
A standard curve was generated with known concentrations and absorbances of the recombinant human AHSP, with the EON microplate reader and Gen5 software.
The haemolysates were diluted 1:1000 in blocking buffer and added (100 μL/well) to the plate coated with the capture antibody. The plates were incubated for 2 h at 37° C., washed and 100 μL of the detecting antibody were added to each well, and then the plates were incubated for 1 h at 37° C. The further procedure is the same as for the AHSP range described above. The AHSP concentrations of the diluted haemolysates were determined by comparison to the standard curve expressed as ng per mL by the microplate reader. All the concentrations of AHSP obtained are the means of four ELISAs. Finally, taking into account the 1000-fold dilution of haemolysates, the final concentrations are reported in μg AHSP per mL of haemolysate.
The inter-subject variabilities were determined by calculating the CVs for four independent measurements of biological AHSP in each haemolysate.

[4] = Treated SS patients (HC), n=10, mean ± SD
[5] = HC-treated SS patients, n=10, FIG. 1

## NC(=O)NO [HC, hydroxycarbamide]
[1]; Treated SS patients (HC), n = 9, mean ± SD
  LDH: 403.2 ± 68.09 U/L
[1]; [4]
  DRBCs (dense dehydrated RBCs, density > 1.110 g/mL): 4.3% and 4.3 ± 2.54%
  Ferritin: 333.2 ± 206.8 µg/L
  Haematocrit: 28.4 ± 4.74%
  Hb: 9.9 ± 1.58 g/dL
  HbA2: 2.04 ± 0.53%
  HbF: 21.51% and 21.51 ± 5.36%
  HbS: 76.45 ± 4.9%
  MCH: 39.7 ± 4.76 pg
  MCHC: 34.8 ± 0.79 g/dL
  MCHbF (% HbF × MCH): 8.69 ± 2.81 pg
  MCHbS (% HbS × MCH): 30.22 ± 2.89 pg
  MCV: 114.3 ± 13.43 fL
  Platelets: 355.8 ± 125.5 ×10^9/L
  RBC: 2.42 ± 0.45 ×10^12/L
  RDW: 17 ± 2.26%
  Reticulocytes: 114.7 ± 45.87 ×10^9/L
  Reticulocytes (%): 4.57 ± 1.79%
  Total bilirubin: 28.5 ± 14.18 µmol/L
[1]; Treated SS patients (stable HC treatment for at least one year), n=10, mean ± SD
  WBC: 6.88 ± 1.46 ×10^9/L
[2]
  α-Hb pool: 162 ± 31 ppm
[3]; HC-treated SS patients, n=10
  AHSP concentration, interquartile range (IQR): 1.26 to 1.76 µg/mL
[3]; [5]
  AHSP concentration, maximum value: 2.16 μg AHSP per mL of haemolysate
  AHSP concentration, minimum value: 1.18 μg AHSP per mL of haemolysate
[3]; HC-treated vs untreated SS patients, remained higher than in controls
  Effect of HC treatment on AHSP concentration in RBCs (in words): significantly lower; also recorded: significantly decreased
[3]; Individual HC-treated SS patients P13-P22, average of 3 or 4 independent measurements ± SD, haemolysate
  Measured [AHSP], individual treated patients: 1.37 ± 0.17 µg/mL and 2.16 ± 0.29 µg/mL and 1.99 ± 0.26 µg/mL and 1.32 ± 0.13 µg/mL and 1.18 ± 0.21 µg/mL and 1.29 ± 0.23 µg/mL and 1.19 ± 0.28 µg/mL and 1.34 ± 0.15 µg/mL and 1.44 ± 0.17 µg/mL and 1.69 ± 0.15 µg/mL
[3]; Treated SS patients (HC), n=10, mean ± SD, RBC haemolysate
  Measured [AHSP], group mean: 1.50 ± 0.34 µg/mL

Reference: patent publication US20240319209A1, “METHOD FOR QUANTIFYING AHSP PROTEIN AND ITS USE FOR PROGNOSING A HAEMOGLOBIN-RELATED DISORDER” (INSTITUT NATIONAL DE LA SANTÉ ET DE LA RECHERCHE MÉDICALE, priority 2021, published 2024)
